In ChEMBL document CHEMBL4825696, “Development of photocontrolled BRD4 PROTACs for tongue squamous cell carcinoma (TSCC)” (Eur J Med Chem, 2021):
Calls of active or inactive are those of the source. No cut-off for these calls is given here.

How the values were obtained:
[1] = Induction of apoptosis in human HN-6 cells assessed as early apoptotic cells at 5 uM measured after 1 hr by AnnexinV-FITC/propidium iodide staining based flow cytometry analysis (Rvb =1.54%); type: functional
[2] = Induction of apoptosis in human HN-6 cells assessed as late apoptotic cells at 5 uM measured after 1 hr by AnnexinV-FITC/propidium iodide staining based flow cytometry analysis (reference value: 1.46%); type: functional
HN-6 [3] = assay: Antitumour activity against human HN-6 cells xenografted in zebrafish embryo assessed as inhibition of tumour growth at 50 uM measured after 72 hrs by microscopic method; type: functional
[4] = Induction of apoptosis in human HN-6 cells assessed as viable cells at 5 uM measured after 1 hr by AnnexinV-FITC/propidium iodide staining based flow cytometry analysis (reference value: 93.62%); type: functional; details: read-out: Activity
[5] = Induction of apoptosis in human HN-6 cells assessed as necrotic cells at 5 uM measured after 1 hr by AnnexinV-FITC/propidium iodide staining based flow cytometry analysis (reference value: 3.37%); type: functional
HN-6 [6] = assay: Antitumor activity against human HN-6 cells xenografted in nude mouse assessed as tumor growth inhibition at 50 mg/kg, ip administered every day for 2 weeks and measured every 2 days; type: functional, organism-based
[7] = (§1) Antiproliferative activity against human HN-6 cells assessed as reduction in cell viability incubated for 24 hrs by CCK-8 assay; type: functional, cell-based; details: HN-6, 24 h
[8] = target: T1, Protein cereblon/Bromodomain-containing protein 4 (Homo sapiens) (UniProt O60885+Q96SW2); assay: PROTAC activity at CRBN/BRD4 in human HEK293T cells assessed as BRD4 degradation by measuring downregulation of c-Myc level by western blot analysis; type: cell-based
[9] = target: T1, Protein cereblon/Bromodomain-containing protein 4 (Homo sapiens); assay: PROTAC activity at CRBN/BRD4 in human HEK293T cells assessed as BRD4 degradation by measuring downregulation of BRD4 level at 0.1 to 10 uM by western blot analysis; type: cell-based; details: dose 0.1-10 µM
[10] = target: T1, Protein cereblon/Bromodomain-containing protein 4 (Homo sapiens); assay: PROTAC activity at CBRN/BRD4 in human HEK293T cells assessed as degradation of BRD4 measured after 30 mins by Fluorescence polarization competitive binding assay; type: cell-based
[11] = Induction of apoptosis in human HN-6 cells assessed as early apoptotic cells at 5 uM irradiated with 365 nm UVA light for 15 mins followed by incubation with compound for 24 hrs by AnnexinV-FITC/propidium iodide staining based flow cytometry analysis (reference value: 5.3%); type: functional
HN-6 [12] = assay: Antitumour activity against human HN-6 cells xenografted in zebrafish embryo assessed as inhibition of tumour growth at 50 uM irradiated with 365 nm UVA light for 20 mins and measured after 3 days by microscopic method; type: functional; details: time 3.0 day
HN-6 [13] = assay: Antiproliferative activity against human HN-6 cells assessed as reduction in cell viability irradiated with 365 nm UVA light for 15 mins followed by incubation with compound for 24 hrs by CCK-8 assay; type: functional, cell-based
[14] = target: T1, Protein cereblon/Bromodomain-containing protein 4 (Homo sapiens); assay: PhotoPROTAC activity at CBRN/BRD4 in human HEK293T cells assessed as degradation of BRD4 irradiated with 365 nm UVA light for 15 mins followed by incubation with compound for 30 mins by Fluorescence polarization competitive binding assay; type: cell-based
HN-6 [15] = assay: as §1; type: functional, cell-based
[16] = Induction of apoptosis in human HN-6 cells assessed as late apoptotic cells at 5 uM irradiated with 365 nm UVA light for 15 mins followed by incubation with compound for 24 hrs by AnnexinV-FITC/propidium iodide staining based flow cytometry analysis (Rvb =1.69%); type: functional
[17] = target: T1, Protein cereblon/Bromodomain-containing protein 4 (Homo sapiens); assay: PhotoPROTAC activity at CRBN/BRD4 in human HEK293T cells assessed as BRD4 degradation by measuring downregulation of BRD4 level at 3 uM pretreated for 1 hr followed by irradiation with 365 nm UVA light for 15 mins and measured after 24 hrs by Western blot analysis; type: cell-based; details: time 1515.0 min
[18] = (§2) Photolysis of compound in acetonitrile assessed as 2-((S)-4-(4-chlorophenyl)-2,3,9-trimethyl-6H-thieno[3,2-f][1,2,4]triazolo[4,3a][1,4]diazepin-6-yl)-N-(4-(2-((2-(2,6-dioxopiperidin-3-yl)-1,3-dioxoisoindolin-4-yl)oxy)acetamido)butyl)acetamide formation at 40 uM incubated for 60 mins under 365 nm UVA irradiation by HPLC analysis; type: functional
[19] = target: T1, Protein cereblon/Bromodomain-containing protein 4 (Homo sapiens); assay: PhotoPROTAC activity at CRBN/BRD4 in human HEK293T cells assessed as BRD4 degradation by measuring downregulation of c-Myc level pretreated for 1 hr followed by irradiation with 365 nm UVA light for 15 mins and measured after 24 hrs by Western blot analysis; type: cell-based; details: time 1515.0 min
[20] = as §2, with “UV-Vis spectral” for “HPLC”; type: functional
[21] = Induction of apoptosis in human HN-6 cells assessed as viable cells at 5 uM irradiated with 365 nm UVA light for 15 mins followed by incubation with compound for 24 hrs by AnnexinV-FITC/propidium iodide staining based flow cytometry analysis (reference value: 90.31%); type: functional; details: HN-6, light or radiation study, read-out: Activity
[22] = Induction of apoptosis in human HN-6 cells assessed as necrotic cells at 5 uM irradiated with 365 nm UVA light for 15 mins followed by incubation with compound for 24 hrs by AnnexinV-FITC/propidium iodide staining based flow cytometry analysis (reference value: 2.7%); type: functional
[23] = as §2, with “DMSO-d6” for “acetonitrile”, “10 mM” for “40 uM”, “1H-NMR” for “HPLC”; type: functional
[24] = Photolysis of compound in acetonitrile assessed as 2-(2,6-dioxo-3-piperidyl)isoindoline-1,3-dione formation at 40 uM incubated for 40 mins under 365 nm UVA irradiation by UV-Vis spectral analysis; type: functional
[25] = Photolysis of compound in acetonitrile assessed as 2-(2,6-dioxo-3-piperidyl)isoindoline-1,3-dione formation at 40 uM incubated for 40 mins under 365 nm UVA irradiation by HPLC analysis; type: functional

SMILES: Cc1sc2c(c1C)C(c1ccc(Cl)cc1)=N[C@@H](CC(=O)NCCCCNC(=O)COc1cccc3c1C(=O)N(C1CCC(=O)NC1=O)C3=O)c1nnc(C)n1-2 (stereo not given in full)
- Activity [1]: 33.75%
- Activity [2]: 12.17%
- Activity (HN-6 [3]): Active
- viability at 5 µM [4]: 51.1%
- Activity [5]: 3%
- Activity (HN-6 [6]): Active
- IC50 [7]: 7.07 µM
- Activity [8]: Active
- Activity [9]: Active
- Activity [10]: Dose-Dependent Effect

SMILES: COc1cc(CN2C(=O)CCC(N3C(=O)c4cccc(OCC(=O)NCCCCNC(=O)C[C@@H]5N=C(c6ccc(Cl)cc6)c6c(sc(C)c6C)-n6c(C)nnc65)c4C3=O)C2=O)c([N+](=O)[O-])cc1OC (stereo not given in full)
- Activity [1]: 10.85%
- Activity [2]: 4.05%
- Activity (HN-6 [3]): inactive
- viability at 5 µM [4]: 82.5%
- Activity [11]: 19.29%
- Activity [5]: 2.55%
- Activity (HN-6 [12]): Active
- Activity (HN-6 [13]): Active
- Activity [14]: Dose-Dependent Effect
- Activity (HN-6 [15]): inactive
- Activity [16]: 8.35%
- Activity [17]: Active
- Drug metabolism [18]: Metabolite detected
- Activity [19]: Active
- Drug metabolism [20]: Metabolite detected
- viability at 5 µM [21]: 68.1%
- Activity [22]: 4.24%
- Drug metabolism [23]: Metabolite detected

SMILES: COc1cc(CN2C(=O)CCC(N3C(=O)c4ccccc4C3=O)C2=O)c([N+](=O)[O-])cc1OC (stereo not given)
- Drug metabolism [24]: Metabolite detected
- Drug metabolism [25]: Metabolite detected
